Measurements: patent US20130005710A1, “AMINOPYRIDINE DERIVATIVE” (priority 2009, published 2013)

How the values were obtained:
Tg2576 mice = assay: Cognitive function improving effect in novel object recognition test; format: in vivo, mouse; conditions: 10 mg/kg/day orally for 3 consecutive weeks, female Tg2576 mice; recovery ratio relative to wild type and vehicle
Procedure: Eight- to 9-month-old female Tg2576 mice were used, and wild-type littermates were used as control mice. All the mice were raised in a room having a temperature of 23±3° C. and 12-hour light/dark cycles (light phase: 7 a.m. to 7 p.m.) and allowed to freely take food (Oriental Yeast Co., Ld.) and water.
The body weights and blood glucose levels of the Tg2576 mice were measured, and these mice were divided (n=11-15) so that there was no difference among groups. 10 mg/kg/day compound or vehicle (0.5% methylcellulose solution, Wako Pure Chemical Industries, Ltd.) was orally administered to each mouse for 3 consecutive weeks. The following novel object recognition test was conducted (acquisition trial and retention trial were carried under blind): 4 or 5 mice in one cage were placed in a box of 30×30×30 cm and acclimatized for 30 minutes in the absence of objects. On the next day, two identical objects were placed in diagonally opposite corners of the box. The mice were placed in the box, and the time spent exploring the objects for 5 minutes was recorded (acquisition trial). 24 hours later, one of the objects was in turn replaced by a novel one, and the same test as the acquisition trial was conducted (retention trial). During the test, places were appropriately changed between the two objects to minimize environmental/behavioral psychological factors. The ratio of the time spent exploring the novel object to the whole exploring time was calculated as an index showing cognitive functions and used as preference index (PI). Furthermore, a recovery ratio was calculated according to the following formula:
[Recovery ratio]=[[PI of Tg2576 mice treated by each compound]−[PI of Tg2576 mice treated by vehicle]]/[[PI of wild type mice]−[PI of Tg2576 mice treated by vehicle]]×100(%).
In this context, individuals that explored neither of the objects in the acquisition trial and the retention trial were excluded from this test.

rat mixed glial culture = assay: Neurogenesis promoting effect in rat mixed glial culture (neuronal differentiation, beta-tubulin III ELISA); format: cell-based; conditions: Rattus norvegicus, 72 h, 1 μM compound + rhIGF-1 100 ng/ml, 3 days; control (only rhIGF-1) = 100%; absorbance 450 nm; read-out: Ratio of absorbance of compound-supplemented group to control (%)
Procedure: The hippocampus and the cerebral cortex were excised from each of 3-day-old SD rats. A cell suspension was prepared therefrom using a neuron dispersion kit (Sumitomo Bakelite Co., Ltd., MB-X9901) and inoculated at concentration of 10^5 cells/well to a 96-well plate coated with type I collagen (AGC Techno Glass Co., Ltd., 4860-010). The cells were cultured in a growth medium (D-MEM/F12 containing 10% FBS and PS) at 37° C. for 4 days under 5% CO2 conditions.
After the culture, the medium was replaced by a differentiation medium (D-MEM/F12 containing PS), and rhIGF-1 (R&D Systems, 291-G1-250, final concentration: 100 ng/ml) and 1 μM compound were added thereto. The cells were further cultured for 3 days. The cultured cells were fixed in 4% paraformaldehyde-PBS (Muto Pure Chemicals Co., Ltd.), subjected to membrane permeation treatment with 0.1% Triton X-100 PBS, and blocked with Block Ace solution (DS Pharma Biomedical Co., Ltd., UK-B80). Anti-neuron-specific class III beta-tubulin Antibody (R&D Systems, MAB1195, clone Tuj-1) was diluted 1000-fold and used as a primary antibody. Anti-Mouse Ig, HRP-Linked F(ab′)2 Fragment Sheep (GE Healthcare, NA9310) was diluted 10000-fold and used as a secondary antibody. A plate washer (BIO-TEK INSTRUMENTS ELX405) was used in washing operation. TMB Microwell Peroxidase Substrate System (Kirkegaard & Perry Laboratories, 50-76-00) was used in color reaction, which was performed for 10 minutes and stopped by addition of 1 M phosphoric acid. Absorbance at 450 nm was measured using a plate reader (Labsystems Multiskan BICHROMATIC).
The rate of increase in the absorbance of the compound-supplemented group (compound+rhIGF-1) relative to that of a compound-unsupplemented group (control, only rhIGF-1) as 100% was determined in terms of % control.

Akt = Akt protein degradation inhibitory effect in rat mixed glial culture (Western blot); format: cell-based; conditions: 1 μM compound + rhIGF-1 100 ng/ml, 10 minutes; unsupplemented = 100%, only rhIGF-1 = 0%; Akt corrected with ERK
Procedure: The mixed glial cells used in Experimental Example 1 were inoculated at a concentration of 4×10^6 cells/well to a 6-well plate coated with type I collagen (AGC Techno Glass Co., Ltd.). The cells were cultured in a growth medium (D-MEM/F12 containing 10% FES and PS) at 37° C. for 4 days under 5% CO2 conditions. Then, the medium was replaced by a serum-free medium (D-MEM/F12 containing PS), and the cells were cultured at 37° C. for 4 days under 5% CO2 conditions to remove serum.
Next, rhIGF-1 (R&D Systems, 291-G1-250, final concentration: 100 ng/ml) and 1 μM compound were added thereto and reacted for 10 minutes in a temperature-controlled water bath set to 37° C. […]
Proteins were collected from the cell extracts using trichloroacetic acid and quantified according to the Lowry method. […] The cell extracts were diluted with RIPA so that the protein levels were constant among the test solutions on the basis of the measured values (10 μg/lane). […] Bands were detected using ImmunoStar reagent (Wako Pure Chemical Industries, Ltd., 291-55203) and an X-ray film. The results were quantified using GS-800 Calibrated Densitometer manufactured by Bio-Rad Laboratories, Inc., and band intensity was digitized by multiplying the absorbance of the Akt- or ERK-1&2-derived band by an area. […]

| SMILES | Preference index (% recovery) (Tg2576 mice) | activity at 1 µM (rat mixed glial culture) | Akt degradation inhibitory rate (%) (Akt) |
| --- | --- | --- | --- |
| COc1ccc(N2CCN(c3ccc(F)cc3)CC2)c(-c2ccc(N(C)C)cc2)n1 [Example 12, 4-{3-[4-(4-fluorophenyl)piperazin-1-yl]-6-methoxypyridin-2-yl}-N,N-dimethylaniline] | 70.3% | 345% | – |
| COc1ccc(N2CCN(c3ccc(OC)nc3-c3ccc(N(C)C)cc3)CC2)cc1 [Example 19, 4-{6-methoxy-3-[4-(4-methoxyphenyl)piperazin-1-yl]pyridin-2-yl}-N,N-dimethylaniline] | 118.2% | 263% | 97% |
| COc1ccc(N2CCN(c3ccc(C)cc3)CC2)c(-c2ccc(N(C)C)cc2)n1 [Example 25, 4-{6-methoxy-3-[4-(4-methylphenyl)piperazin-1-yl]pyridin-2-yl}-N,N-dimethylaniline] | 97.0% | 276% | 140% |
| CCOc1ccc(-c2nc(OC)ccc2N2CCN(c3ccc(OC)cc3)CC2)cc1 [Example 55, 1-[2-(4-ethoxyphenyl)-6-methoxypyridin-3-yl]-4-(4-methoxyphenyl)piperazine] | 19.8% | 316% | – |
| COc1ccc(N2CCN(c3c(C)cc(OC)nc3-c3ccc(N(C)C)cc3)CC2)cc1 [Example 159, 4-{6-methoxy-3-[4-(4-methoxyphenyl)piperazin-1-yl]-4-methylpyridin-2-yl}-N,N-dimethylaniline] | – | 611% | – |
| COc1ccc(N2CCN(c3ccc(OC)nc3-c3ccoc3)CC2)cc1 [Example 160, 1-(2-furan-3-yl-6-methoxypyridin-3-yl)-4-(4-methoxyphenyl)piperazine] | – | 220% | – |
| CCOc1ccc(-c2nc(OC)cc(C)c2N2CCN(c3ccc(OC)cc3)CC2)cn1 [Example 168, 6′-ethoxy-6-methoxy-3-[4-(4-methoxyphenyl)piperazin-1-yl]-4-methyl-2,3′-bipyridine] | – | 584% | – |
| COc1ccc(N2CCN(c3ccc(OC)nc3-c3cnn(C)c3)CC2)cc1 [Example 169, 1-[6-methoxy-2-(1-methyl-1H-pyrazol-4-yl)pyridin-3-yl]-4-(4-methoxyphenyl)piperazine] | – | 255% | – |
| COc1ccc(N2CCN(c3ccc(OC)nc3-c3ccc4c(cnn4C)c3)CC2)cc1 [Example 171, 5-{6-methoxy-3-[4-(4-methoxyphenyl)piperazin-1-yl]pyridin-2-yl}-1-methyl-1H-indazole] | – | 312% | – |
| COc1ccc(N2CCN(c3ccc(OC)nc3-c3ccc(N4CCOCC4)cc3)CC2)cc1 [Example 174, 4-(4-{6-methoxy-3-[4-(4-methoxyphenyl)piperazin-1-yl]pyridin-2-yl}phenyl)morpholine] | – | 390% | – |
